From ChEMBL document CHEMBL6096719, “Kidney Targeting Smart Antibiotic Discovery: Multimechanism Pleuromutilins for Pyelonephritis Therapy” (J Med Chem, 2025)
Converted amounts (≈) assume the structure as drawn.

How the values were obtained:
Staphylococcus aureus [1] = assay: Antibacterial activity against Staphylococcus aureus ATCC 29213 assessed as inhibition of bacterial growth incubated for 24 hrs by broth microdilution method; format: functional
Staphylococcus aureus [2] = assay: Antibacterial activity against methicillin-resistant Staphylococcus aureus 171 assessed as inhibition of bacterial growth incubated for 24 hrs by broth microdilution method; format: functional
Pseudomonas aeruginosa = assay: Antibacterial activity against multidrug-resistant Pseudomonas aeruginosa 126 assessed as inhibition of bacterial growth incubated for 24 hrs by broth microdilution method; format: functional
Staphylococcus aureus [3] = assay: Antibacterial activity against methicillin-resistant Staphylococcus aureus ATCC 43300 assessed as inhibition of bacterial growth incubated for 24 hrs by broth microdilution method; format: functional
Staphylococcus aureus [4] = assay: Antibacterial activity against methicillin-resistant Staphylococcus aureus 596 assessed as inhibition of bacterial growth incubated for 24 hrs by broth microdilution method; format: functional
Acinetobacter baumannii [5] = assay: Antibacterial activity against Acinetobacter baumannii ATCC 19606 assessed as inhibition of bacterial growth incubated for 24 hrs by broth microdilution method; format: functional
Escherichia coli [6] = assay: Antibacterial activity against Escherichia coli CMCC 44103 assessed as inhibition of bacterial growth incubated for 24 hrs by broth microdilution method; format: functional
[7] = system: Staphylococcus epidermidis; assay: Antibacterial activity against methicillin-resistant Staphylococcus epidermidis ATCC 51625 assessed as inhibition of bacterial growth incubated for 24 hrs by broth microdilution method; format: functional
Acinetobacter baumannii [8] = assay: Antibacterial activity against carbapenem-resistant Acinetobacter baumannii 882 assessed as inhibition of bacterial growth incubated for 24 hrs by broth microdilution method; format: functional
Staphylococcus aureus [9] = assay: Antibacterial activity against methicillin-resistant Staphylococcus aureus ATCC 33591 assessed as inhibition of bacterial growth incubated for 24 hrs by broth microdilution method; format: functional
Klebsiella pneumoniae = assay: Antibacterial activity against multidrug-resistant Klebsiella pneumoniae 893 assessed as inhibition of bacterial growth incubated for 24 hrs by broth microdilution method; format: functional
[10] = Cytotoxicity against human HEK293 cells assessed as reduction in cell viability incubated for 24 hrs by CCK8 assay; format: toxicity, cell-based
Staphylococcus aureus [11] = assay: Antibacterial activity against methicillin-resistant Staphylococcus aureus 206 assessed as inhibition of bacterial growth incubated for 24 hrs by broth microdilution method; format: functional
[12] = Cytotoxicity against human A549 cells assessed as reduction in cell viability incubated for 24 hrs by CCK8 assay; format: toxicity, cell-based
Escherichia coli [13] = assay: Antibacterial activity against Escherichia coli ATCC 25922 assessed as inhibition of bacterial growth incubated for 24 hrs by broth microdilution method; format: functional
Staphylococcus aureus [14] = assay: Antibacterial activity against methicillin-resistant Staphylococcus aureus 222 assessed as inhibition of bacterial growth incubated for 24 hrs by broth microdilution method; format: functional
Enterococcus = assay: Antibacterial activity against vancomycin-resistant Enterococcus 80 assessed as inhibition of bacterial growth incubated for 24 hrs by broth microdilution method; format: functional
[15] = Cytotoxicity against human HepG2 cells assessed as reduction in cell viability incubated for 24 hrs by CCK8 assay; format: toxicity, cell-based
Staphylococcus aureus [16] = assay: Antibacterial activity against methicillin-resistant Staphylococcus aureus 575 assessed as inhibition of bacterial growth incubated for 24 hrs by broth microdilution method; format: functional
[17] = Aqueous solubility of the compound incubated for 12 hrs by UV-Vis spectrophotometry; format: physicochemical; details: buffer
Salmonella enterica = assay: Antibacterial activity against Salmonella enterica ATCC 14028 assessed as inhibition of bacterial growth incubated for 24 hrs by broth microdilution method; format: functional
Staphylococcus aureus [18] = assay: Antibacterial activity against methicillin-resistant Staphylococcus aureus ATCC33591 infected in systemic intraperitoneal infection Kunming mouse model assessed as decrease in inflammation, neutrophil infiltration and disordered spleen structure at 5 mg/kg, ip treated at 1 hr post-infection and measured after 7 days by Hematoxylin-Eosin staining based analysis; format: functional, organism-based; details: time 7.0 day
Staphylococcus aureus [19] = assay: Antibacterial activity against methicillin-resistant Staphylococcus aureus ATCC33591 infected in systemic intraperitoneal infection Kunming mouse model assessed as decrease in inflammation, neutrophil infiltration, alveolar structure destruction, leukocyte infiltration, interstitial thickening in lungs at 5 mg/kg, ip treated at 1 hr post-infection and measured after 7 days by Hematoxylin-Eosin staining based analysis; format: functional, organism-based; details: time 7.0 day
[20] = Toxicity against methicillin-resistant Staphylococcus aureus ATCC33591 infected systemic intraperitoneal infection Kunming mouse model assessed as animal's mortality at 5 mg/kg, ip treated at 1 hr post-infection and measured after 7 days; format: organism-based; details: in vivo, 168 h, time 7 day
Staphylococcus aureus [21] = assay: Antibacterial activity against methicillin-resistant Staphylococcus aureus ATCC33591 infected in systemic intraperitoneal infection Kunming mouse model assessed as decrease in inflammation and neutrophil infiltration in kidney at 5 mg/kg, ip treated at 1 hr post-infection and measured after 7 days by Hematoxylin-Eosin staining based analysis; format: functional, organism-based; details: time 7.0 day
Staphylococcus aureus [22] = assay: Antibacterial activity against methicillin-resistant Staphylococcus aureus ATCC33591 infected in systemic intraperitoneal infection Kunming mouse model assessed as decrease in inflammation and neutrophil infiltration in liver at 5 mg/kg, ip treated at 1 hr post-infection and measured after 7 days by Hematoxylin-Eosin staining based analysis; format: functional, organism-based; details: time 7.0 day

Structure (SMILES)	MIC (Staphylococcus aureus [2])	MIC (Pseudomonas aeruginosa)	MIC (Staphylococcus aureus [4])	MIC (Acinetobacter baumannii [8])	MIC (Klebsiella pneumoniae)	CC50 at 24 h [10]	MIC (Staphylococcus aureus [11])	CC50 at 24 h [12]	MIC (Staphylococcus aureus [14])	MIC (Enterococcus)	CC50 at 24 h [15]	MIC (Staphylococcus aureus [16])	solubility at 12 h [17]	further results
C=C[C@]1(C)C[C@@H](OC(=O)CSc2nc3cc[n+](Cc4ccc(C#N)cc4)cc3s2)[C@]2(C)[C@H](C)CC[C@]3(CCC(=O)[C@H]32)[C@@H](C)[C@@H]1O.[Br-]	16 µg/mL	32 µg/mL	8 µg/mL	64 µg/mL	16 µg/mL	18.2 µM	64 µg/mL	> 100 µM	16 µg/mL	16 µg/mL	78.5 µM	32 µg/mL	451 µg/mL	MIC (Staphylococcus aureus [1]): < 2 µg/mL; MIC (Staphylococcus aureus [3]): < 2 µg/mL; MIC (Acinetobacter baumannii [5]): < 2 µg/mL; MIC (Escherichia coli [6]): < 2 µg/mL; MIC [7]: < 2 µg/mL; MIC (Staphylococcus aureus [9]): < 2 µg/mL; MIC (Escherichia coli [13]): < 2 µg/mL; MIC (Salmonella enterica): < 2 µg/mL
C=C[C@]1(C)C[C@@H](OC(=O)CSc2nc3cc[n+](Cc4ccc(C)cc4)cc3s2)[C@]2(C)[C@H](C)CC[C@]3(CCC(=O)[C@H]32)[C@@H](C)[C@@H]1O.[Br-]	8 µg/mL	8 µg/mL	8 µg/mL	4 µg/mL	2 µg/mL	82.1 µM	2 µg/mL	> 100 µM	4 µg/mL	8 µg/mL	46.4 µM	4 µg/mL	568 µg/mL	
C=C[C@]1(C)C[C@@H](OC(=O)CSC(C)(C)CNC(=O)[C@H](N)C(C)C)[C@]2(C)[C@H](C)CC[C@]3(CCC(=O)[C@H]32)[C@@H](C)[C@@H]1O [VALNEMULIN]	> 128 µg/mL	64 µg/mL (≈ 113 µM)	> 128 µg/mL	64 µg/mL (≈ 113 µM)	32 µg/mL (≈ 56.7 µM)	65.4 µM	64 µg/mL (≈ 113 µM)	53.7 µM	64 µg/mL (≈ 113 µM)	64 µg/mL (≈ 113 µM)	77.3 µM	128 µg/mL (≈ 227 µM)	218 µg/mL (≈ 386 µM)	Activity (Staphylococcus aureus [18]): Active; Slight Without Complete Recovery Observed; Activity (Staphylococcus aureus [19]): Active; Slight Without Complete Recovery Observed; Activity [20]: Toxic; Activity (Staphylococcus aureus [21]): Active; Slight Without Complete Recovery Observed; Activity (Staphylococcus aureus [22]): Active; Slight Without Complete Recovery Observed
C=C[C@]1(C)C[C@@H](OC(=O)CSc2nc3cc[n+](Cc4ccc(C#N)cc4)cc3[nH]2)[C@]2(C)[C@H](C)CC[C@]3(CCC(=O)[C@H]32)[C@@H](C)[C@@H]1O.[Br-]	16 µg/mL	32 µg/mL	8 µg/mL	64 µg/mL	16 µg/mL	> 100 µM	4 µg/mL	> 100 µM	16 µg/mL	2 µg/mL	96.3 µM	32 µg/mL	481 µg/mL	MIC (Staphylococcus aureus [1]): < 2 µg/mL; MIC (Staphylococcus aureus [3]): < 2 µg/mL; MIC (Acinetobacter baumannii [5]): < 2 µg/mL; MIC (Escherichia coli [6]): < 2 µg/mL; MIC [7]: < 2 µg/mL; MIC (Staphylococcus aureus [9]): < 2 µg/mL; MIC (Escherichia coli [13]): < 2 µg/mL; MIC (Salmonella enterica): < 2 µg/mL
C=C[C@]1(C)C[C@@H](OC(=O)CSc2nc3cc[n+](Cc4ccc(Br)cc4)cc3s2)[C@]2(C)[C@H](C)CC[C@]3(CCC(=O)[C@H]32)[C@@H](C)[C@@H]1O.[Br-]													344 µg/mL	
C=C[C@]1(C)C[C@@H](OC(=O)CSc2nc3cc[n+](Cc4cc(OC)cc(OC)c4)cc3s2)[C@]2(C)[C@H](C)CC[C@]3(CCC(=O)[C@H]32)[C@@H](C)[C@@H]1O.[Br-]													94 µg/mL	
C=C[C@]1(C)C[C@@H](OC(=O)CSc2nc3cc[n+](Cc4ccc(C(C)(C)C)cc4)cc3[nH]2)[C@]2(C)[C@H](C)CC[C@]3(CCC(=O)[C@H]32)[C@@H](C)[C@@H]1O.[Br-]													486 µg/mL	
Br.C=C[C@]1(C)C[C@@H](OC(=O)CSc2nc3cc[n+](Cc4ccc([N+](=O)[O-])cc4)cc3[nH]2)[C@]2(C)[C@H](C)CC[C@]3(CCC(=O)[C@H]32)[C@@H](C)[C@@H]1O													691 µg/mL	
C=C[C@]1(C)C[C@@H](OC(=O)CSc2nc3cc[n+](Cc4ccc(Cl)cc4)cc3s2)[C@]2(C)[C@H](C)CC[C@]3(CCC(=O)[C@H]32)[C@@H](C)[C@@H]1O.[Br-]													449 µg/mL	
C=C[C@]1(C)C[C@@H](OC(=O)CS[C@@H]2C[C@H]3CC[C@@H](C2)N3C)[C@]2(C)[C@H](C)CC[C@]3(CCC(=O)[C@H]32)[C@@H](C)[C@@H]1O [RETAPAMULIN]	128 µg/mL (≈ 247 µM)	64 µg/mL (≈ 124 µM)	32 µg/mL (≈ 61.8 µM)	64 µg/mL (≈ 124 µM)	128 µg/mL (≈ 247 µM)	57.5 µM	64 µg/mL (≈ 124 µM)	71.5 µM	128 µg/mL (≈ 247 µM)	> 128 µg/mL	61.1 µM	32 µg/mL (≈ 61.8 µM)		
C=C[C@]1(C)C[C@@H](OC(=O)CSc2nc3cc[n+](Cc4ccc(C(F)(F)F)cc4)cc3[nH]2)[C@]2(C)[C@H](C)CC[C@]3(CCC(=O)[C@H]32)[C@@H](C)[C@@H]1O.[Br-]													337 µg/mL	
C=C[C@]1(C)C[C@@H](OC(=O)CSc2nc3cc[n+](Cc4cc(F)ccc4C#N)cc3[nH]2)[C@]2(C)[C@H](C)CC[C@]3(CCC(=O)[C@H]32)[C@@H](C)[C@@H]1O.[Br-]													91.8 µg/mL	
C=C[C@]1(C)C[C@@H](OC(=O)CSc2nc3cc[n+](Cc4cc(OC)cc(OC)c4)cc3[nH]2)[C@]2(C)[C@H](C)CC[C@]3(CCC(=O)[C@H]32)[C@@H](C)[C@@H]1O.[Br-]													176 µg/mL	
